This assay concerns CD2F1 mice, L1210 leukemia ip, survival T/C. The experiment in a line: NCI In Vivo Anticancer Drug Screen. Data for tumor model L1210 Leukemia (intraperitoneal) in CD2F1 (CDF1) mice. Particulars: higher = longer survival. The method, boiled down:
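Implant tumor; dose compound or vehicle; measure endpoint in both groups; report treated divided by control.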

Setting [1] is: endpoint: mean survival time, dose: 100.0 mg/kg/injection, schedule: Q01DX009 (ip), vehicle: saline with Tween-80.
The mark [2] stands for this setting: endpoint: mean survival time, dose: 100.0 mg/kg/injection, schedule: Q04DX003 (ip), vehicle: saline with Tween-80.
Where [3] appears, read: endpoint: mean survival time, dose: 200.0 mg/kg/injection, schedule: Q01DX009 (ip), vehicle: saline with Tween-80.
The mark [4] stands for this setting: endpoint: mean survival time, dose: 200.0 mg/kg/injection, schedule: Q04DX003 (ip), vehicle: saline with Tween-80.
The mark [5] stands for this setting: endpoint: mean survival time, dose: 400.0 mg/kg/injection, schedule: Q01DX009 (ip), vehicle: saline with Tween-80.
The mark [6] stands for this setting: endpoint: mean survival time, dose: 400.0 mg/kg/injection, schedule: Q04DX003 (ip), vehicle: saline with Tween-80.

“And” between values parts separate entries of the source, which are not always exact repeats. Identical values can stand only once. Toxic doses and inconclusive results are not listed.

Regarding `CC1(C)N=C(N)N=C(N)N1c1cccc(OCCOc2cccc(N)c2)c1`, the T/C was 97 % of control (endpoint: mean survival time, dose: 25.0 mg/kg/injection, schedule: Q01DX001 (ip), vehicle: Klucel (hydroxypropylcellulose) (HPC)) and 97 % of control (endpoint: mean survival time, dose: 50.0 mg/kg/injection, schedule: Q01DX001 (ip), vehicle: Klucel (hydroxypropylcellulose) (HPC)).

In the case of `S=C(Nc1ccc(Cl)cc1)Nc1ccc(Cl)cc1` (tested in a mixture with another compound), the T/C runs as follows: under setting [1], 92 % of control; under setting [2], 91 % of control; under setting [3], 97 % of control; under setting [4], 88 % of control; under setting [5], 90 % of control; under setting [6], 93 % of control.

As to `COCc1nccc2c1[nH]c1ccccc12`, the T/C is 92 % of control under setting [1], 110 % of control under setting [3] and 107 % of control under setting [5].

For `O=[N+]([O-])c1ccc(N/N=C/c2cccc(CO)c2)c([N+](=O)[O-])c1`, the T/C by setting is: (endpoint: mean survival time, dose: 100.0 mg/kg/injection, schedule: Q04DX003 (ip), vehicle: saline) 94 % of control; (endpoint: mean survival time, dose: 200.0 mg/kg/injection, schedule: Q04DX003 (ip), vehicle: saline) 88 % of control; (endpoint: mean survival time, dose: 400.0 mg/kg/injection, schedule: Q04DX003 (ip), vehicle: saline) 96 % of control.

Regarding `CCCCOP(=O)(OCCCC)C(CCC)OP(OC(CCC)P(=O)(OCCCC)OCCCC)OC(CCC)P(=O)(OCCCC)OCCCC` (stereo not given), the T/C by setting is: (endpoint: mean survival time, dose: 100.0 mg/kg/injection, schedule: Q04DX002 (ip), vehicle: saline) 103 % of control; (endpoint: mean survival time, dose: 200.0 mg/kg/injection, schedule: Q04DX002 (ip), vehicle: saline) 89 % of control; (endpoint: mean survival time, dose: 400.0 mg/kg/injection, schedule: Q04DX002 (ip), vehicle: saline) 97 % of control.

Turning to `COC(=O)c1ccccc1N=NNc1cccc(SC)c1`, the T/C by setting is: (endpoint: mean survival time, dose: 50.0 mg/kg/injection, schedule: Q01DX009 (ip), vehicle: saline with Tween-80) 95 % of control; under setting [1], 103 % of control; under setting [3], 97 % of control.

In the case of `N#C/C(=C1C=C/C(=N\O)C(Cl)=C\1)c1ccccc1`, the T/C under setting [1] was 103 % of control; the T/C under setting [2] was 88 % of control; the T/C under setting [3] was 88 % of control; the T/C under setting [4] is 93 % of control; the T/C under setting [6] is 96 % of control.

For the compound `CSc1ncnc2c1cnn2C1OC(CO)C(O)C1O` (stereo not given), the T/C is, setting by setting: (endpoint: mean survival time, dose: 12.5 mg/kg/injection, schedule: Q01DX005 (ip), vehicle: other) 93 % of control; (endpoint: mean survival time, dose: 25.0 mg/kg/injection, schedule: Q01DX005 (ip), vehicle: other) 100 % of control; (endpoint: mean survival time, dose: 50.0 mg/kg/injection, schedule: Q01DX005 (ip), vehicle: other) 105 % of control; (endpoint: mean survival time, dose: 100.0 mg/kg/injection, schedule: Q01DX005 (ip), vehicle: other) 122 % of control and 100 % of control; (endpoint: mean survival time, dose: 200.0 mg/kg/injection, schedule: Q01DX005 (ip), vehicle: other) 119 % of control and 112 % of control.

As for `O=c1c2ccccc2nnn1OCc1ccccc1`, the T/C runs as follows: (endpoint: mean survival time, dose: 12.5 mg/kg/injection, schedule: Q01DX001 (ip), vehicle: distilled water + Tween-80) 104 % of control; (endpoint: mean survival time, dose: 25.0 mg/kg/injection, schedule: Q01DX001 (ip), vehicle: distilled water + Tween-80) 90 % of control; (endpoint: mean survival time, dose: 50.0 mg/kg/injection, schedule: Q01DX001 (ip), vehicle: distilled water + Tween-80) 92 % of control; (endpoint: mean survival time, dose: 100.0 mg/kg/injection, schedule: Q01DX001 (ip), vehicle: distilled water + Tween-80) 90 % of control; (endpoint: mean survival time, dose: 200.0 mg/kg/injection, schedule: Q01DX001 (ip), vehicle: distilled water + Tween-80) 88 % of control.

Take `Cc1ccc2nc(-c3cccc([N+](=O)[O-])c3)oc(=O)c2c1`: the T/C is 97 % of control under setting [1], 96 % of control under setting [3] and 94 % of control under setting [5].

For `CC(=O)OC1CC2CC(C1C)C2(C)C` (stereo not given), the T/C under setting [1] is 91 % of control, the T/C under setting [2] was 90 % of control, the T/C under setting [4] was 88 % of control and the T/C under setting [6] was 88 % of control.

Consider `CSc1ncnc2c1ncn2C1OC(CO)C(O)C1O` (stereo not given), for which the T/C reads like this: (endpoint: mean survival time, dose: 4.0 mg/kg/injection, schedule: Q01DX009 (ip), vehicle: saline) 118 % of control; (endpoint: mean survival time, dose: 5.0 mg/kg/injection, schedule: Q01DX005 (ip), vehicle: saline) 118 % of control and 124 % of control; (endpoint: mean survival time, dose: 5.0 mg/kg/injection, schedule: Q01DX007 (ip), vehicle: saline) 110 % of control; (endpoint: mean survival time, dose: 5.0 mg/kg/injection, schedule: Q01DX009 (ip), vehicle: saline) 114 % of control; (endpoint: mean survival time, dose: 5.0 mg/kg/injection, schedule: Q03DX003 (ip), vehicle: saline) 115 % of control; (endpoint: mean survival time, dose: 5.0 mg/kg/injection, schedule: Q04DX003 (ip), vehicle: saline) 103 % of control. In addition, the T/C was 116 % of control (endpoint: mean survival time, dose: 10.0 mg/kg/injection, schedule: Q01DX007 (ip), vehicle: saline); 121 % of control (endpoint: mean survival time, dose: 10.0 mg/kg/injection, schedule: Q01DX009 (ip), vehicle: saline); 122 % of control (endpoint: mean survival time, dose: 10.0 mg/kg/injection, schedule: Q03DX003 (ip), vehicle: saline); 112 % of control (endpoint: mean survival time, dose: 10.0 mg/kg/injection, schedule: Q04DX003 (ip), vehicle: saline); 150 % of control (endpoint: mean survival time, dose: 12.5 mg/kg/injection, schedule: Q01DX009 (ip), vehicle: saline); 154 % of control (endpoint: mean survival time, dose: 20.0 mg/kg/injection, schedule: Q01DX005 (ip), vehicle: saline). Besides, the T/C (endpoint: mean survival time, dose: 20.0 mg/kg/injection, schedule: Q04DX003 (ip), vehicle: saline) is 114 % of control; the T/C (endpoint: mean survival time, dose: 25.0 mg/kg/injection, schedule: Q01DX001 (ip), vehicle: saline) was 118 % of control; the T/C (endpoint: mean survival time, dose: 32.0 mg/kg/injection, schedule: Q01DX009 (ip), vehicle: saline) was 115 % of control; the T/C (endpoint: mean survival time, dose: 40.0 mg/kg/injection, schedule: Q01DX005 (ip), vehicle: saline) was 164 % of control and 166 % of control; the T/C (endpoint: mean survival time, dose: 64.0 mg/kg/injection, schedule: Q01DX009 (ip), vehicle: saline) was 80 % of control; the T/C (endpoint: mean survival time, dose: 80.0 mg/kg/injection, schedule: Q01DX005 (ip), vehicle: saline) is 119 % of control. For the same compound, the T/C was 155 % of control (endpoint: median survival time, dose: 18.0 mg/kg/injection, schedule: Q01DX009 (ip), vehicle: saline); 170 % of control and 191 % of control (endpoint: median survival time, dose: 27.0 mg/kg/injection, schedule: Q01DX009 (ip), vehicle: saline); 158 % of control and 161 % of control (endpoint: median survival time, dose: 30.0 mg/kg/injection, schedule: Q01DX009 (ip), vehicle: saline); 183 % of control (endpoint: median survival time, dose: 35.0 mg/kg/injection, schedule: Q01DX009 (ip), vehicle: saline); 119 % of control and 108 % of control (endpoint: median survival time, dose: 45.0 mg/kg/injection, schedule: Q01DX009 (ip), vehicle: saline); 157 % of control (endpoint: median survival time, dose: 123.0 mg/kg/injection, schedule: Q01DX001 (ip), vehicle: saline). Also, the T/C was 160 % of control (endpoint: median survival time, dose: 185.0 mg/kg/injection, schedule: Q01DX001 (ip), vehicle: saline with Tween-80) and 151 % of control (endpoint: median survival time, dose: 185.0 mg/kg/injection, schedule: Q01DX001 (ip), vehicle: saline).

On to `CCOC(=O)N/N=C/c1cc(Cl)cc(Cl)c1O`, for which the T/C was 111 % of control (endpoint: mean survival time, dose: 50.0 mg/kg/injection, schedule: Q01DX001 (ip), vehicle: saline with Tween-80); 98 % of control (endpoint: mean survival time, dose: 100.0 mg/kg/injection, schedule: Q01DX001 (ip), vehicle: saline with Tween-80); 90 % of control (endpoint: mean survival time, dose: 200.0 mg/kg/injection, schedule: Q01DX001 (ip), vehicle: saline with Tween-80).

Regarding `CN(C)[C@@H]1C(=O)C(C(=O)NCN2CCN(C(=N)N=C(N)N)CC2)=C(O)[C@@]2(O)C(=O)C3=C(O)c4c(O)cccc4[C@@](C)(O)[C@H]3C[C@@H]12`, the T/C is 111 % of control (endpoint: mean survival time, dose: 1.25 mg/kg/injection, schedule: Q01DX001 (ip), vehicle: saline); 107 % of control (endpoint: median survival time, dose: 0.31 mg/kg/injection, schedule: Q01DX009 (ip), vehicle: saline); 110 % of control (endpoint: median survival time, dose: 0.62 mg/kg/injection, schedule: Q01DX009 (ip), vehicle: saline); 103 % of control (endpoint: median survival time, dose: 1.25 mg/kg/injection, schedule: Q01DX009 (ip), vehicle: saline); 109 % of control (endpoint: median survival time, dose: 2.0 mg/kg/injection, schedule: Q01DX009 (ip), vehicle: saline); 87 % of control (endpoint: median survival time, dose: 5.0 mg/kg/injection, schedule: Q01DX009 (ip), vehicle: saline).

Consider `CCOC(=O)C(C(C)=O)C(C)=O`, for which the T/C under setting [2] was 102 % of control, the T/C under setting [4] is 94 % of control and the T/C under setting [6] is 94 % of control.
